One compound from patent EP4588995A1, “IMPROVEMENT OF SOLUBILITY OF CHOLINE CARBOXYLATES IN BASE OILS” (OLEON NV, priority 2024, dated 2025) can be followed below.

A short description of this series: Resistivity of blends according to standard ASTM D1169. It is filed as physicochemical. The method, then: The resistivity ability of blends was evaluated according to the standard ASTM […].

On to `CCCCCCCC/C=C\CCCCCCCC(=O)OCC(COC(=O)CCCCCCC/C=C\CCCCCCCC)(COC(=O)CCCCCCC/C=C\CCCCCCCC)COC(=O)CCCCCCC/C=C\CCCCCCCC` [Pentaerythritol tetraoleate], for which the Resistivity is listed as 12.00 10^10 Ωcm.
